According to US5149707A, “1-((2-fluorophenyl)(4-fluorophenyl)phenylmethyl)-1H-imidazole useful as antifungal agent” (J. Uriach & Cia, S.A., priority 1988, dated 1992):
Converted amounts (≈) assume the structure as drawn. Like-named read-outs stand apart in the source and are kept apart here.

How the values were obtained:
[1] = system: C. albicans serotipo A; assay: In vitro antifungal activity (MIC), agar dilution; type: cell-based
Experimental: (§1) The antifungal activity of 1-[(2-fluorophenyl)(4-fluorophenyl)phenylmethyl]-1H-imidazole was shown by its ability to inhibit the growth of different species of yeast and filamentous fungi in vitro. The activity was recorded as the MIC value, that is, the minimum amount of product needed to achieve the complete inhibition of the in vitro growth of the test organism. Testing was performed as follows: a solution of the antifungal agent in ethanol was diluted with DST agar (pH 6.5) or Emmon's Sabouraud dextrose agar to obtain concentrations between 10 and 0.01 mcg/ml, or 80 and 0.16 mcg/m, respectively. The inoculum was standarized in order 1×10^5 cfu/ml, and 10 mcl of each organism was seeded into the agar surface. Incubation was then allowed at 30° C. during 3 days (DST) or 2 days (Emmon's) for yeasts and 10 days for filamentous fungi. Following incubation, the zones of inhibition were measured and compared to an inoculated, drug-free control to yield the MIC value.

[2] = system: C. albicans serotipo B; assay: In vitro antifungal activity (MIC), agar dilution; type: cell-based; conditions: Candida albicans
Experimental: as §1

[3] = system: C. guilliermondii SQ 2210; assay: In vitro antifungal activity (MIC), agar dilution; type: cell-based; conditions: Meyerozyma guilliermondii
Experimental: as §1

[4] = system: C. pseudotropicalis ATCC 28838; assay: In vitro antifungal activity (MIC), agar dilution; type: cell-based; conditions: Kluyveromyces marxianus
Experimental: as §1

[5] = system: C. tropicalis SQ 1647; assay: In vitro antifungal activity (MIC), agar dilution; type: cell-based
Experimental: as §1

[6] = system: Microsporum gypseum (-); assay: In vitro antifungal activity (MIC), agar dilution; type: cell-based; conditions: Nannizzia gypsea
Experimental: as §1

[7] = system: Microsporum gypseum; assay: In vitro antifungal activity (MIC), agar dilution; type: cell-based; conditions: Nannizzia gypsea
Experimental: as §1

[8] = system: Rhodotorula rubra; assay: In vitro antifungal activity (MIC), agar dilution; type: cell-based
Experimental: as §1

[9] = system: T. glabrata (clinica); assay: In vitro antifungal activity (MIC), agar dilution; type: cell-based; conditions: Nakaseomyces glabratus
Experimental: as §1

[10] = system: T. mentagrophytes (clinica) (5); assay: In vitro antifungal activity (MIC), agar dilution; type: cell-based; conditions: Trichophyton mentagrophytes
Experimental: as §1

[11] = system: T. mentagrophytes ATCC 9129; assay: In vitro antifungal activity (MIC), agar dilution; type: cell-based
Experimental: as §1

[12] = system: fungi (some species); assay: Preliminary tests of antifungal activity; type: cell-based
[13] = Liposolubility (log P octanol-water); type: physicochemical
[14] = Pharmacokinetics; conditions: in words
[15] = system: yeast and filamentous fungi; assay: Comparative antifungal tests of Examples 18 to 20; type: cell-based
Experimental: as §1, with “Incubation was then allowed at 30° C. during 3 days (DST) or 2 days (Emmon's) for yeasts and 10 days for filamentous fungi.” left out
The growth inhibition percentage of 5 different isolates on shake cultures was determined 24 h and 48 h after incubation at 28° C. […] The growth inhibition percentage was determined by spectrophotometry (450 nm). […]
The antifungal activity of 1-[(2-fluorophenyl)(4-fluorophenyl)phenylmethyl]-1H-imidazole and bifonazole was determined by serial dilutions in Sabouraud gentamycin broth using microplates. […] MIC's were determined as in example 18. […]

[16] = system: mice; conditions: mouse, in vivo
[17] = Tolerance (DL50) in mice; conditions: mouse, in vivo
[18] = Emmon's Sabouraud dextrose agar, read-out: MIC
[19] = Emmon's Sabouraud dextrose agar

Fc1ccc(C(c2ccccc2)(c2ccccc2F)n2ccnc2)cc1 (stereo not drawn) [UR-4056, 1-[(2-fluorophenyl) (4-fluorophenyl)phenylmethyl]-1H-imidazole]
MIC ([1]; Candida albicans, DST agar, read-out: MIC): 1 µg/mL (≈ 2.89 µM)
MIC ([1]; Candida albicans, Emmon's Sabouraud dextrose agar, read-out: MIC): 1.25 µg/mL (≈ 3.61 µM)
MIC ([2]; DST agar, read-out: MIC): 0.5 µg/mL (≈ 1.44 µM)
MIC [2, 18]: 0.31 µg/mL (≈ 0.895 µM)
MIC ([3]; SQ2210, DST agar, read-out: MIC): 1 µg/mL (≈ 2.89 µM)
MIC ([3]; SQ2210, Emmon's Sabouraud dextrose agar, read-out: MIC): 0.16 µg/mL (≈ 0.462 µM)
MIC ([4]; ATCC28838, DST agar, read-out: MIC): 0.025 µg/mL (≈ 0.0722 µM)
MIC ([4]; ATCC28838, Emmon's Sabouraud dextrose agar, read-out: MIC): 0.63 µg/mL (≈ 1.82 µM)
MIC ([5]; Candida tropicalis, SQ1647, DST agar, read-out: MIC): 1 µg/mL (≈ 2.89 µM)
MIC ([5]; Candida tropicalis, SQ1647, Emmon's Sabouraud dextrose agar, read-out: MIC): 0.63 µg/mL (≈ 1.82 µM)
MIC ([6]; DST agar): 0.1 µg/mL (≈ 0.289 µM)
MIC [6, 19]: 0.63 µg/mL (≈ 1.82 µM)
MIC ([7]; DST agar): 0.5 µg/mL (≈ 1.44 µM)
MIC [7, 19]: 1.25 µg/mL (≈ 3.61 µM)
MIC ([8]; DST agar): 0.1 µg/mL (≈ 0.289 µM)
MIC [8, 19]: 0.08 µg/mL (≈ 0.231 µM)
MIC ([9]; DST agar, read-out: MIC): 0.05 µg/mL (≈ 0.144 µM)
MIC [9, 18]: 0.31 µg/mL (≈ 0.895 µM)
MIC ([10]; DST agar, read-out: MIC): 0.1 µg/mL (≈ 0.289 µM)
MIC [10, 18]: 1.25 µg/mL (≈ 3.61 µM)
MIC ([11]; Trichophyton mentagrophytes, ATCC9129, DST agar, read-out: MIC): 0.05 µg/mL (≈ 0.144 µM)
MIC ([11]; Trichophyton mentagrophytes, ATCC9129, Emmon's Sabouraud dextrose agar, read-out: MIC): 0.31 µg/mL (≈ 0.895 µM)
antifungal activity [12]: very good activity against some species
liposolubility ([13]; in words): good liposolubility
logP ([13]; octanol-water): 3.09
pharmacokinetics [14]: appropiate pharmacokinetics
potency compared with bifonazole [15]: more potent than bifonazole in many instances
tolerance [16]: good tolerance
LD50 [17]: 691 mg/kg

c1ccc(-c2ccc(C(c3ccccc3)n3ccnc3)cc2)cc1 (stereo not drawn) [Bifonazole, 1-[(4-biphenyl)-phenylmethyl]-1H-imidazole, reference compound]
MIC ([1]; Candida albicans): 2.5 µg/mL (≈ 8.05 µM)
MIC [1, 19]: 2.50 µg/mL (≈ 8.05 µM)
MIC ([2]; DST agar): 10 µg/mL (≈ 32.2 µM)
MIC [2, 19]: 20 µg/mL (≈ 64.4 µM)
MIC ([3]; SQ2210, DST agar): 10 µg/mL (≈ 32.2 µM)
MIC ([3]; SQ2210, Emmon's Sabouraud dextrose agar): 5 µg/mL (≈ 16.1 µM)
MIC ([4]; ATCC28838, DST agar): 0.05 µg/mL (≈ 0.161 µM)
MIC ([4]; ATCC28838, Emmon's Sabouraud dextrose agar): 1.25 µg/mL (≈ 4.03 µM)
MIC ([5]; Candida tropicalis, SQ1647): 10 µg/mL (≈ 32.2 µM)
MIC [5, 19]: 10.00 µg/mL (≈ 32.2 µM)
MIC ([6]; DST agar): 2.5 µg/mL (≈ 8.05 µM)
MIC [6, 19]: 5 µg/mL (≈ 16.1 µM)
MIC ([7]; DST agar): 0.1 µg/mL (≈ 0.322 µM)
MIC [7, 19]: 0.63 µg/mL (≈ 2.03 µM)
MIC ([8]; DST agar): 0.05 µg/mL (≈ 0.161 µM)
MIC [8, 19]: 0.04 µg/mL (≈ 0.129 µM)
MIC ([9]; DST agar): 0.05 µg/mL (≈ 0.161 µM)
MIC [9, 19]: 0.16 µg/mL (≈ 0.515 µM)
MIC ([10]; DST agar): 1 µg/mL (≈ 3.22 µM)
MIC [10, 19]: 5 µg/mL (≈ 16.1 µM)
MIC [11, 19]: 2.50 µg/mL (≈ 8.05 µM)
MIC ([11]; Trichophyton mentagrophytes, ATCC9129): 2.5 µg/mL (≈ 8.05 µM)
